How the values were obtained:
Assay in all cases: area under dose-response curve (viability, 1 nM-10 uM) (fraction (0-1)); higher = more sensitive
Settings in all cases: 72 h
[1] = tested on: myeloid leukemia patient primary cells Pat.2
Experimental: (§1)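 AUC (0–1, higher = more sensitive) of the 5-point dose–response (1 nM–10 µM, 72 h, CellTiter-Glo) in primary AML/CML patient mononuclear cells. 0.030103 is the floor for inactive compounds.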

[2] = tested on: myeloid leukemia patient primary cells Pat.12
Experimental: as §1

[3] = tested on: myeloid leukemia patient primary cells Pat.15
Experimental: as §1

[4] = tested on: myeloid leukemia patient primary cells Pat.4
Experimental: as §1

[5] = tested on: myeloid leukemia patient primary cells Pat.8
Experimental: as §1

[6] = tested on: myeloid leukemia patient primary cells Pat.5
Experimental: as §1

[7] = tested on: myeloid leukemia patient primary cells Pat.11
Experimental: as §1

[8] = tested on: myeloid leukemia patient primary cells Pat.10
Experimental: as §1

[9] = tested on: myeloid leukemia patient primary cells Pat.1
Experimental: as §1

[10] = tested on: myeloid leukemia patient primary cells Pat.3
Experimental: as §1

[11] = tested on: myeloid leukemia patient primary cells Pat.14
Experimental: as §1

[12] = tested on: myeloid leukemia patient primary cells Pat.6
Experimental: as §1

[13] = tested on: myeloid leukemia patient primary cells Pat.9
Experimental: as §1

[14] = tested on: myeloid leukemia patient primary cells Pat.13
Experimental: as §1

[15] = tested on: myeloid leukemia patient primary cells Pat.7
Experimental: as §1

CC(=O)Nc1nc(C)c(-c2ccc(Cl)c(S(=O)(=O)NCCO)c2)s1 [PIK93]
area under dose-response curve [1]: 0.0748
area under dose-response curve [2]: < 0.0301
area under dose-response curve [3]: 0.417
area under dose-response curve [4]: 0.401
area under dose-response curve [5]: 0.0853
area under dose-response curve [6]: 0.907
area under dose-response curve [7]: 0.204
area under dose-response curve [8]: 0.728
area under dose-response curve [9]: 0.365
area under dose-response curve [10]: 0.545
area under dose-response curve [11]: 0.139
area under dose-response curve [12]: 0.0757
area under dose-response curve [13]: 0.82
area under dose-response curve [14]: 0.214
area under dose-response curve [15]: 0.16

CO[C@H]1C[C@@H]2CC[C@@H](C)[C@@](O)(O2)C(=O)C(=O)N2CCCC[C@H]2C(=O)O[C@H]([C@H](C)C[C@@H]2CC[C@@H](OC(=O)C(C)(CO)CO)[C@H](OC)C2)CC(=O)[C@H](C)/C=C(\C)[C@@H](O)[C@@H](OC)C(=O)[C@H](C)C[C@H](C)/C=C/C=C/C=C/1C [Temsirolimus]
area under dose-response curve [1]: < 0.0301
area under dose-response curve [2]: < 0.0301
area under dose-response curve [3]: 0.584
area under dose-response curve [4]: 0.206
area under dose-response curve [5]: < 0.0301
area under dose-response curve [6]: 0.798
area under dose-response curve [7]: < 0.0301
area under dose-response curve [8]: 0.123
area under dose-response curve [9]: 0.0628
area under dose-response curve [10]: 0.123
area under dose-response curve [11]: 0.142
area under dose-response curve [12]: < 0.0301
area under dose-response curve [13]: 0.608
area under dose-response curve [14]: < 0.0301
area under dose-response curve [15]: 0.146

C=CCN(C)CCCCCCOc1ccc(C(=O)c2ccc(Br)cc2)c(F)c1.O=C(O)/C=C/C(=O)O [Ro 48-8071 fumarate]
area under dose-response curve [1]: 0.0431
area under dose-response curve [3]: < 0.0301
area under dose-response curve [4]: 0.0305
area under dose-response curve [5]: 0.0337
area under dose-response curve [6]: 0.146
area under dose-response curve [7]: 0.0457
area under dose-response curve [8]: 0.146
area under dose-response curve [9]: 0.109
area under dose-response curve [10]: 0.576
area under dose-response curve [11]: 0.0802
area under dose-response curve [12]: 0.0624
area under dose-response curve [13]: 0.13
area under dose-response curve [14]: 0.0673
area under dose-response curve [15]: 0.217

CO[C@H]1C[C@@H]2CC[C@@H](C)[C@@](O)(O2)C(=O)C(=O)N2CCCC[C@H]2C(=O)O[C@H]([C@H](C)C[C@@H]2CC[C@@H](OCCO)[C@H](OC)C2)CC(=O)[C@H](C)/C=C(\C)[C@@H](O)[C@@H](OC)C(=O)[C@H](C)C[C@H](C)/C=C/C=C/C=C/1C [Everolimus]
area under dose-response curve [1]: 0.0353
area under dose-response curve [2]: < 0.0301
area under dose-response curve [3]: 0.625
area under dose-response curve [4]: 0.413
area under dose-response curve [5]: < 0.0301
area under dose-response curve [6]: 0.808
area under dose-response curve [7]: < 0.0301
area under dose-response curve [8]: 0.604
area under dose-response curve [9]: 0.122
area under dose-response curve [10]: 0.746
area under dose-response curve [11]: 0.177
area under dose-response curve [12]: 0.0682
area under dose-response curve [13]: 0.319
area under dose-response curve [14]: 0.0367
area under dose-response curve [15]: 0.139

O=C1C(SCCO)=C(SCCO)C(=O)c2ccccc21
area under dose-response curve [1]: 0.234
area under dose-response curve [2]: 0.385
area under dose-response curve [3]: 0.444
area under dose-response curve [4]: 0.354
area under dose-response curve [5]: 0.174
area under dose-response curve [6]: 0.455
area under dose-response curve [7]: 0.355
area under dose-response curve [9]: 0.378
area under dose-response curve [10]: 0.33
area under dose-response curve [11]: 0.421
area under dose-response curve [12]: 0.187
area under dose-response curve [13]: 0.455
area under dose-response curve [14]: 0.147
area under dose-response curve [15]: 0.45

CC(C)(C)c1ccc(S(=O)(=O)NCc2ccc(C(=O)Nc3cccnc3)cc2)cc1 [STF-31]
area under dose-response curve [1]: 0.367
area under dose-response curve [2]: 0.366
area under dose-response curve [3]: 0.375
area under dose-response curve [4]: 0.567
area under dose-response curve [5]: 0.433
area under dose-response curve [6]: 0.896
area under dose-response curve [7]: 0.368
area under dose-response curve [8]: 0.449
area under dose-response curve [9]: 0.267
area under dose-response curve [10]: 0.745
area under dose-response curve [11]: 0.653
area under dose-response curve [12]: 0.357
area under dose-response curve [13]: 0.8
area under dose-response curve [14]: 0.358
area under dose-response curve [15]: 0.66

Cn1cc(-c2ccncc2)c(-c2ccc(OCc3ccc4ccccc4n3)cc2)n1
area under dose-response curve [1]: < 0.0301
area under dose-response curve [2]: < 0.0301
area under dose-response curve [3]: < 0.0301
area under dose-response curve [4]: < 0.0301
area under dose-response curve [5]: < 0.0301
area under dose-response curve [6]: 0.938
area under dose-response curve [7]: < 0.0301
area under dose-response curve [8]: 0.163
area under dose-response curve [9]: < 0.0301
area under dose-response curve [10]: 0.219
area under dose-response curve [11]: 0.183
area under dose-response curve [13]: 0.694
area under dose-response curve [14]: 0.067
area under dose-response curve [15]: 0.309

Source: the supplement of paper PMC8671470
